Source: PubChem BioAssay AID463199 (Broad Institute, 2010)
Active and inactive are the calls of the source.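 The calls were made as follows: active = AC50, the dose giving half-maximal effect, exceeds a fixed cutoff for a compound that rescues yeast growth under heat; inactive = the rest, inconclusive results apart.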

These molecules were tested on S. cerevisiae Burl-1 ts mutant growth, BacTiter-Glo, 38.5C 24 h (assay: growth induction of Burl-1 ts yeast mutant, dose response, counter-screen for SUMOylation pathway inhibitor project, whole organism, S. cerevisiae, luminescence (AID 463199)).
With O=C(Oc1ccccc1N1C(=O)C2CC=CCC2C1=O)c1ccc(Br)cc1 (stereo not given) the AC50 was > 42 µM (inactive).
C/C(=N/Nc1ccc(F)cc1)c1ccc(Cl)s1 was tested, and the AC50 was > 42 µM (inactive).
Cc1ccc(C(=O)N/C(=C\c2cccs2)C(=O)NCCc2c[nH]c3ccccc23)cc1 was tested, and the AC50 was > 42 µM (inactive).
In the case of CC(=O)c1ccc(Oc2cc(C)nc(N3CCOCC3)n2)cc1, the AC50 is reported as > 42 µM (inactive).
COc1cccc(CN(C)C(=O)C2CCC(=O)N(Cc3cccc(F)c3)C2)c1 (stereo not given) was tested, and the AC50 was > 42 µM (inactive).
With Cn1cc(Br)c(C(=O)Nc2nccs2)n1 the AC50 was > 42 µM (inactive).
O=C(CCc1ccccc1)N1CCN(c2ccccc2F)CC1 was tested, and the AC50 was > 42 µM (inactive).
In the case of Cc1cc(C(=O)OCC(=O)Nc2cccc(S(N)(=O)=O)c2)c2ccccc2n1, the AC50 is reported as > 42 µM (inactive).
In the case of Cc1noc(C)c1Cc1ccc(O)cc1, the AC50 is reported as > 42 µM (inactive).
CCN(CC)CCCN(Cc1cc2cc(OC)ccc2[nH]c1=O)C(=O)Nc1ccc(F)cc1 was tested, and the AC50 was > 42 µM (inactive).
In the case of CC(SC#N)C(=O)C12CC3CC(CC(C3)C1)C2 (stereo not given), the AC50 is reported as > 42 µM (inactive).
With Cc1ccc(F)cc1NS(=O)(=O)c1ccc(Cl)s1 the AC50 was > 42 µM (inactive).
For CCCCOC(=O)/C(=C/C=C/c1ccccc1)NC(=O)c1ccccc1, the AC50 was > 42 µM (inactive).
O=C(NCc1ccccn1)C1Nc2ccc(C(F)(F)F)cc2C2C=CCC12 (stereo not given) was tested, and the AC50 was > 42 µM (inactive).
In the case of Cc1cc(C)n(C(=O)c2ccccc2[N+](=O)[O-])n1, the AC50 is reported as > 42 µM (inactive).
For Cc1cc(S(=O)(=O)N2CCCC(N3CCOCC3)C2)c(C)cc1Cl (stereo not given), the AC50 was > 42 µM (inactive).
With CC1CCCN(C(=O)Cc2ccc(F)cc2)C1 (stereo not given) the AC50 was > 42 µM (inactive).
In the case of CCOC(=O)c1cc2c(ccn2-c2ccc(F)cc2)n1CC(=O)N1CCN(C(=O)c2ccco2)CC1, the AC50 is reported as > 42 µM (inactive).
CCOC(=O)CNC(=O)c1c(C)nn(C)c1Cl was tested, and the AC50 was > 42 µM (inactive).
CC(N=C(NC#N)Nc1ccncc1)C(C)(C)C (stereo not given) was tested, and the AC50 was > 42 µM (inactive).
For CN1CCCCC1=NCCCn1cnc2c1c(=O)n(C)c(=O)n2C, the AC50 was > 42 µM (inactive).
COc1cc(/C=N/NC(=O)c2cccc([N+](=O)[O-])c2)ccc1O was tested, and the AC50 was > 42 µM (inactive).
With Cc1ccc(C(=O)/C=C/Nc2ccccc2C(N)=O)cc1 the AC50 was > 42 µM (inactive).
For COc1ccc(OC)c(NC(=O)CN(C)S(=O)(=O)c2ccc(Cl)cc2)c1, the AC50 was > 42 µM (inactive).
For COC(=O)[C@H](Cc1ccccc1)NC(=O)NC(C)CCc1ccccc1 (stereo not given in full), the AC50 was > 42 µM (inactive).
For CC1CN=C(NCc2ccccc2)S1 (stereo not given), the AC50 was > 42 µM (inactive).
For Cc1ccc(O)c(C)c1, the AC50 was > 42 µM (inactive).
In the case of O=C(Nc1ccc2ccccc2c1)N1CCCN(CCOc2ccccc2)CC1, the AC50 is reported as > 42 µM (inactive).
In the case of COc1ccc(C(=O)CSc2nnc(CNC(=O)c3ccccc3)n2C)cc1, the AC50 is reported as > 42 µM (inactive).
CCC1CCCCN1C(=O)CSc1nnc(CNC(=O)c2ccco2)o1 (stereo not given) was tested, and the AC50 was > 42 µM (inactive).
In the case of COc1cc(/C=C(\C#N)C(=O)Nc2ccc(C(=O)O)cc2)ccc1OC(=O)c1cccc(F)c1, the AC50 is reported as > 42 µM (inactive).
With COc1ccc(CN(C)C(=O)c2sccc2-c2ccccc2)c(OC)c1 the AC50 was > 42 µM (inactive).
C/C(=N\NC(=O)c1ccc(Cl)cc1)c1cccnc1 was tested, and the AC50 was > 42 µM (inactive).
In the case of CC(C)(C)n1cnc2cc(NC(=O)c3ccc(Cl)cc3)ccc21, the AC50 is reported as > 42 µM (inactive).
For CCn1cc(C(=O)N2CCN(c3ccc(OC)cc3)CC2)c(=O)c2cc(S(=O)(=O)N3CCOCC3)ccc21, the AC50 was > 42 µM (inactive).
For CCCCc1ccc(NC(=S)NCc2cccs2)cc1, the AC50 was > 42 µM (inactive).
With COc1ccccc1-c1sc2ccccc2c1-c1ccc2c(c1)OCO2 the AC50 was > 42 µM (inactive).
For CC(=O)c1cccc(NC(=O)CNC(=O)c2sc3ccccc3c2Cl)c1, the AC50 was > 42 µM (inactive).
For CN(C)C(=O)c1coc2nc3ccccc3nc12, the AC50 was > 42 µM (inactive).
For C(=N\Nc1ccc2nncn2n1)/c1ccccn1, the AC50 was > 42 µM (inactive).
With CC1(C)C2CC=C(/C=N/NC(=S)Nc3cccnc3)C1C2 (stereo not given) the AC50 was > 42 µM (inactive).
O=C(NCCCn1ccnc1)c1ccc(Cl)cc1 was tested, and the AC50 was > 42 µM (inactive).
O=C1NC2(CCCCO2)CO1 (stereo not given) was tested, and the AC50 was > 42 µM (inactive).
With Nc1ncnc2nc(SCC(=O)N3CCN(c4ccccc4)CC3)[nH]c12 the AC50 was > 42 µM (inactive).
In the case of Cc1ccc(C)n1-c1ccc(N(C)C)cc1, the AC50 is reported as > 42 µM (inactive).
O=C(Cc1cccs1)Nc1cccc(-c2nnc(-c3ccco3)o2)c1 was tested, and the AC50 was > 42 µM (inactive).
In the case of O=S1(=O)NC(c2ccccc2)CC(CC2CCCCC2)O1 (stereo not given), the AC50 is reported as > 42 µM (inactive).
CCC1(c2ccccc2)NC(=O)N(CC(=O)N(C)CC(=O)Nc2ccc(F)c(F)c2F)C1=O (stereo not given) was tested, and the AC50 was > 42 µM (inactive).
With CCCN1C(=O)c2ccccc2NC1c1ccc(C)cc1 (stereo not given) the AC50 was > 42 µM (inactive).
O=C(CSc1nnc2ccccn12)NNC(=O)c1ccc(Cl)cc1 was tested, and the AC50 was > 42 µM (inactive).
